Several values for one entry are separate records, joined by “and”; a condition that tells them apart may be missing. Equal entries are not always repeated.
Columns and labels:
[1] = Photophysical studies in PBS buffer pH 7.4; type: physicochemical; conditions: PBS buffer pH 7.4, 20 μM, λex = 320 nm, 298 K
[2] = Photophysical studies in chloroform; type: physicochemical; conditions: 298 K; for Emission λmax [nm] / E [%] (FRET efficiency): λex = 320 nm; for Ø514 nm [%] (quantum yield): ± 20%, standard H2TPP in toluene (Ø514 nm = 0.11)
Method: UV-Visible absorption spectra were measured using an Agilent Technologies Cary 60 Spectrophotometer operating with VVinUV software. The sample was held in a quartz cuvette with a path length of 1 cm. Absorption spectra were recorded against a baseline of pure solvent in an optically matched cuvette with a scan rate of 600 nm/min and a data interval of 1.0 nm. Emission and excitation spectra were acquired on an Agilent Technologies Carry Eclipse Fluorescence Spectrophotometer, in quartz cuvettes with a path length of 1 cm. Emission and excitation spectra were collected with a scan rate of 120.0 nm/min, a delay interval of 1.0 nm and band-passes of 5 nm. […]
(§1) In the examples highlighted above, the sample concentration was […] in PBS buffer and 10 pM in chloroform. All measurements were performed at 298 K.

HO-1 = target: T1, HO-1 (Homo sapiens, UniProt P09601); assay: Control experiment: quenching of coumarin 1i fluorescence on addition of HO-1 in E. coli lysates; type: biochemical; conditions: λex = 320 nm
T1 construct: made in house; host or cells: E. coli (lysate)
T1 sequence (P09601 1-288): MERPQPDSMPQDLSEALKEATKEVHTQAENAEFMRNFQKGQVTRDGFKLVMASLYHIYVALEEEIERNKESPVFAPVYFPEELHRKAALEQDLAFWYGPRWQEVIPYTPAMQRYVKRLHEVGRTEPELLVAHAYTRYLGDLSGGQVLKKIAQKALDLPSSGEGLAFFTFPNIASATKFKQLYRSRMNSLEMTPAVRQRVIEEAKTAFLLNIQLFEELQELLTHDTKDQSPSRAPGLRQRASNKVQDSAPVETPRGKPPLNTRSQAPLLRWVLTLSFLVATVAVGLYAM

[3] = Photophysical studies in PBS buffer pH 7.4; type: physicochemical; conditions: for E [%] (FRET efficiency): PBS buffer pH 7.4, 20 μM, 298 K; for Ø514 nm [%] (quantum yield): PBS buffer pH 7.4, 298 K, ± 20%, standard H2TPP in toluene (Ø514 nm = 0.11)
Method: UV-Visible absorption spectra were measured using an Agilent Technologies Cary 60 Spectrophotometer operating with VVinUV software. The sample was held in a quartz cuvette with a path length of 1 cm. Absorption spectra were recorded against a baseline of pure solvent in an optically matched cuvette with a scan rate of 600 nm/min and a data interval of 1.0 nm. Emission and excitation spectra were acquired on an Agilent Technologies Carry Eclipse Fluorescence Spectrophotometer, in quartz cuvettes with a path length of 1 cm. Emission and excitation spectra were collected with a scan rate of 120.0 nm/min, a delay interval of 1.0 nm and band-passes of 5 nm.
Measurements were recorded in aqueous solutions of PBS buffer at pH 7.4 in order to mimic physiological conditions.
as §1

Molecule: Cc1cc(=O)oc2cc(OCCOc3ccc(C(=O)O)cc3)ccc12 [Compound 1i, 4-(2-((4-Methyl-2-oxo-2H-chromen-7-yl)oxy)ethoxy)benzoic acid]
- Emission λmax [nm] [1]: 384 nm
- Emission λmax [nm] [2]: 381 nm
- decrease in the emission intensity at 384 nm following addition of HO-1 (HO-1): 2.3 fold

Molecule: Cc1cc(=O)oc2cc(OCCBr)ccc12 [Compound 1f]
- Emission λmax [nm] [1]: 384 nm and 383 ^[b] nm
- Emission λmax [nm] [2]: 382 nm

Molecule: COC(=O)CCC1=C(C)c2cc3[nH]c(c(C)c3C)c(-c3ccc(OCCOc4ccc5c(C)cc(=O)oc5c4)cc3)c3nc(cc4[nH]c(cc1n2)c(CCC(=O)OC)c4C)C(C)=C3C [Compound 1g]
- Emission λmax [nm] [1]: 387 nm
- Ø514 nm [%] (quantum yield) [2]: 5.2%
- E [%] (FRET efficiency) [2]: 99.7%
- Emission λmax [nm] [2]: 385 nm and 629 nm and 695 nm
- E [%] (FRET efficiency) ([3]; λex = 320 nm): 95.1%
- Ø514 nm [%] (quantum yield) [3]: 0.5%

Molecule: Cc1cc(=O)oc2cc(OCCOc3ccc(-c4c5nc(c(-c6ccccc6)c6ccc([nH]6)c(-c6ccccc6)c6nc(c(-c7ccccc7)c7ccc4[nH]7)C=C6)C=C5)cc3)ccc12 [Compound C3g, reference compound]
- Emission λmax [nm] [1]: 383 nm
- Ø514 nm [%] (quantum yield) [2]: 17.4%
- E [%] (FRET efficiency) [2]: 96.6%
- Emission λmax [nm] [2]: 379 nm and 654 nm and 719 nm
- E [%] (FRET efficiency) ([3]; λex = 320 nm): 96.8%
- Ø514 nm [%] (quantum yield) [3]: 2.0%

Molecule: Iron(11) dimethyl 3,3′-(3,7,8,12,13,17-hexamethyl-10-(4-(2-((4-methyl-2-oxo-2H-chromen-7-yl)oxy)ethoxy) phenyl)porp-hyrin-2,18-diyl)dipropionate [Compound 1h]
- Emission λmax [nm] [1]: 387 ^[b], [c] nm
- E [%] (FRET efficiency) [2]: 98.7%
- Emission λmax [nm] [2]: 385^[a], [b] nm
- porphyrin emission following Fe2+ complexation ([3]; PBS buffer and chloroform, λex = 320 nm): completely quenched
- E [%] (FRET efficiency) ([3]; λex = 320 nm): 99.2%

— patent US20230416265A1, “COMPOUNDS FOR THE DETECTION OF HEME OXYGENASE 1 (HO-1), AND METHODS AND USES INVOLVING THE SAME” (IMPERIAL COLLEGE INNOVATIONS LIMITED, priority 2020, published 2023)
